The conditions of data set [1]: oral; cited from earlier work.
A short description of data set [2]: Salt form assessment (crystallization propensity, DSC/XRPD physical properties, appearance, counter-ion acceptability, salt suitability). To be noted: for Physical properties (crystallinity, melt, enthalpy, polymorph tendency): DSC, XRPD; for Crystallization propensity: crystallization from ethanol. Format: physicochemical. The arrangement: key: “+/+/+” indicates most favorable; “+/+” indicates more favorable; “+” indicates favorable; “−” indicates unfavorable; “−/−” indicates more unfavorable; “−/−/−” indicates most unfavorable. The protocol:
Samples were analyzed by differential scanning calorimetry (DSC), X-ray powder diffraction (XRPD), and dynamic vapor sorption (DVS). In addition, the appearance and visual properties of each sample were assessed, in addition to propensity for crystallization.
A summary of the data obtained from the analyses of the individual salt forms of Examples 1-9 are presented in Table 10, with advantageous and detrimental properties summarized using the following nomenclature: “+/+/+” indicates most favorable; “+/+” indicates more favorable; “+” indicates favorable; “−” indicates unfavorable; “−/−” indicates more unfavorable; “−/−/−” indicates most unfavorable.

Data set [3] can be described thus: Dynamic vapor sorption (DVS) hygroscopicity. Format: physicochemical. Further details: key to Hygroscopicity: “+/+/+” indicates most favorable; “+/+” indicates more favorable; “+” indicates favorable; “−” indicates unfavorable; “−/−” indicates more unfavorable; “−/−/−” indicates most unfavorable. To be noted: for physical form conversion throughout the DVS cycle: DVS cycle 0-95% RH; for hygroscopicity (in words): DVS isotherm; for acquisition of water on exposure to elevated relative humidities: >95% RH. The source says:
Pharmaceutically acceptable salts of the compound of Formula (I) suitable for pharmaceutical manufacture may also be characterized as non-hygroscopic or slightly hygroscopic, preferably non-hygroscopic. The hygroscopicity may be measured herein by performing a moisture adsorption-desorption isotherm using a dynamic vapor sorption (DVS) analyzer with a starting exposure of 30% relative humidity (RH), increasing humidity up to 95% RH, decreasing humidity to 0%, and finally increasing the humidity back to the starting 30% RH, and classified according to the following: • non-hygroscopic: <0.2%; slightly hygroscopic: ≥0.2% and <2%; hygroscopic: ≥2% and <15%; very hygroscopic: ≥15%; deliquescent: sufficient water is absorbed to form a liquid; all values measured as weight increase (w/w due to acquisition of water) at >95% RH and 25° C.
Dynamic vapor sorption-desorption experiments were carried out using a DVS Resolution instrument supplied by Surface Measurement Systems. Data were acquired using the following acquisition parameters: • Solvent; Water • Start relative humidity; 30% RH • Relative humidity cycle (% RH); 30, 40, 50, 60, 70, 80, 90, 95, 90, 80, 70, 60, 50, 40, 30, 20, 10, 0, 10, 20, 30 • Equilibrium condition (dm/dt); 0.002%/minute • Equilibrium condition window; 10 minutes • Minimum stage period; 5 minutes • Maximum stage period; 360 minutes • Temperature; 25° C. • Carrier gas; Nitrogen • Carrier gas flow rate; 200 mL·min^−1 (Total)
Typically, 20-50 mg of the test substance was mounted in a gauze basket and transferred to the sample port. Excess static electricity was removed throughout sample handling and sample mounting using a ^210Po static eliminator. Instrument performance checks were completed using traceable samples of sodium chloride and lithium chloride. For selected samples, the cycle was repeated using the same sample to assess any change in physical form induced on exposure to elevated relative humidity.

The conditions of data set [4]: prolonged storage; cited from earlier work.

A value given as a limit tells only on which side of the number the result lay.

In the case of `COc1cc(CCNCc2ccccc2OC)c(OC)cc1Cl` [2C—C-NBOMe, 2-(4-Chloro-2,5-dimethoxyphenyl)-N-[(2-methoxyphenyl)methyl]ethan-1-amine], in data set [1], the “orally active dose (lowest)” value is no less than 25 µg and the “very strong psychedelic doses” value was 500 to 700 µg.

For `CN(C)CCc1c[nH]c2ccccc12` [Example 1, 2-(1H-indol-3-yl)-N,N-dimethylethan-1-amine], in data set [2], the Appearance result is recorded as “+/+/+”; the “Physical properties (crystallinity, melt, enthalpy, polymorph tendency)” value (“Physical properties” below) is reported as “+/+/+”; the Crystallization propensity result is “+/+/+”. Moreover, the Hygroscopicity entry in data set [3] (DVS) is “+/+/+”. For the same compound, in data set [3], the “physical form conversion throughout the DVS cycle” value is on record as “no evidence of physical form conversion” and the “hygroscopicity (in words)” value was “no significant hygroscopicity”. Moreover, the “acquisition of water on exposure to elevated relative humidities” value in data set [3] (DVS, 25° C.) is listed as less than 0.2 % w/w.

Consider `CN(C)CCc1c[nH]c2ccccc12` [Example 2, 2-(1H-indol-3-yl)-N,N-dimethylethan-1-amine], for which, in data set [2], the Appearance result is recorded as “+/+/+”; the “Physical properties” value is reported as “+/+/+”; the Crystallization propensity entry is listed as “+/+/+”. In addition, the Hygroscopicity entry in data set [3] (DVS) is recorded as “+/+/+”. Moreover, in data set [3], the “physical form conversion throughout the DVS cycle” value is “no evidence of physical form conversion” and the “hygroscopicity (in words)” value is “no significant hygroscopicity”. For the same compound, the “acquisition of water on exposure to elevated relative humidities” value in data set [3] (DVS, 25° C.) was less than 0.05 % w/w.

Consider `CN(C)CCc1c[nH]c2ccccc12` [Example 3, 2-(1H-indol-3-yl)-N,N-dimethylethan-1-amine], for which, in data set [2], the Appearance entry is listed as “+/+/+”; the “Physical properties” value is reported as “+/+/+”; the Crystallization propensity entry is given as “+”. In addition, the Hygroscopicity result in data set [3] (DVS) was “+/+/+”. Moreover, in data set [3], the “physical form conversion throughout the DVS cycle” value was “no evidence of physical form conversion” and the “hygroscopicity (in words)” value is “no significant hygroscopicity”. Moreover, the “acquisition of water on exposure to elevated relative humidities” value in data set [3] (DVS, 25° C.) is on record as less than 0.06 % w/w.

Take `CN(C)CCc1c[nH]c2ccccc12` [Example 4, 2-(1H-indol-3-yl)-N,N-dimethylethan-1-amine]: in data set [2], the Appearance result is listed as “+/+/+”; the “Physical properties” value is reported as “+/+/+”; the Crystallization propensity entry is recorded as “−”. Also, the Hygroscopicity entry in data set [3] (DVS) is listed as “+/+/+”. Also, in data set [3], the “physical form conversion throughout the DVS cycle” value is on record as “no evidence of physical form conversion” and the “hygroscopicity (in words)” value is listed as “no significant hygroscopicity”. In addition, in data set [3] (DVS, 25° C.), the “acquisition of water on exposure to elevated relative humidities” value was less than 0.5 % w/w.

As to `CN(C)CCc1c[nH]c2ccccc12` [Example 5, 2-(1H-indol-3-yl)-N,N-dimethylethan-1-amine], in data set [2], the Appearance result is “+/+”; the “Physical properties” value is given as “+/+”; the Crystallization propensity entry is given as “+”. The Hygroscopicity entry in data set [3] (DVS) was “−”. In data set [3] (DVS, 25° C., on exposure to 95% RH), the water uptake entry was “approximately 3 % w/w”.

As for `CN(C)CCc1c[nH]c2ccccc12` [Example 6, 2-(1H-indol-3-yl)-N,N-dimethylethan-1-amine], in data set [2], the Appearance result was “+/+/+”; the “Physical properties” value was “+/+”; the Crystallization propensity result is given as “−”. Further, in data set [3] (DVS), the Hygroscopicity result is recorded as “−/−/−” and the “behavior at elevated relative humidities” value was “deliquesce”.

Take `CN(C)CCc1c[nH]c2ccccc12` [Example 7, 2-(1H-indol-3-yl)-N,N-dimethylethan-1-amine]: in data set [2], the Appearance result is “−”; the “Physical properties” value is recorded as “−/−”; the Crystallization propensity result is on record as “−”. Also, the Hygroscopicity result in data set [3] (DVS) was “−/−/−”. For the same compound, the “physical form conversion throughout the DVS cycle” value in data set [3] was “a phase change was induced”. In data set [3] (DVS, >80% RH), the “water uptake at relative humidities exceeding 80%” value was “excessive”. Besides, the equilibrium water content in data set [3] (DVS, typical ambient relative humidities) is greater than 3%.

Take `CN(C)CCc1c[nH]c2ccccc12` [Example 8, 2-(1H-indol-3-yl)-N,N-dimethylethan-1-amine]: in data set [2], the Appearance entry was “−”; the “Physical properties” value is listed as “−/−”; the Crystallization propensity result is “−”. In data set [3] (DVS), the Hygroscopicity result is listed as “−/−/−” and the “behavior at elevated relative humidities” value is given as “deliquesce”.

On to `CN(C)CCc1c[nH]c2ccccc12` [Example 9, 2-(1H-indol-3-yl)-N,N-dimethylethan-1-amine], for which, in data set [2], the Appearance result is “−”; the “Physical properties” value is reported as “−/−”; the Crystallization propensity entry is “−”. Moreover, in data set [3] (DVS), the Hygroscopicity result is recorded as “−/−/−”.

Take `CN(C)CCc1c[nH]c2ccccc12` [Example I-1, 2-(1H-indol-3-yl)-N,N-dimethylethan-1-amine]: the storage sensitivity result in data set [4] is “sensitive to oxygen, heat, and light”.

Values taken from US20250051279A1, “TRYPTAMINE COMPOSITIONS AND METHODS” (priority 2022, published 2025).
